This is an account of results in article PMC8042770, “Odorant Receptors for Detecting Flowering Plant Cues Are Functionally Conserved across Moths and Butterflies” (Molecular Biology and Evolution, 2020).

What all share (type): cell-based
For assay [1], the target named is HarmOR67 (Helicoverpa armigera, UniProt A0A7T3KAH1). The assay is described as follows: Xenopus oocyte two-electrode voltage clamp, HarmOR67 + Orco. The following applies: dose response in oocytes, unit M. As for the experimental part: (§1) In order to expand our analysis on the response properties of HarmORs, we conducted dose–response analyses for the 28 functional HarmORs. […] Six HarmORs (OR3, 22, 48, 50, 56, and 66) could not be activated by any ligand at 10^−5 M. For the other 22 HarmORs, dose–response curves were generated and EC50 values of their major ligands were calculated (fig. 2A and supplementary table S2, Supplementary Material online). The HarmOR repertoire was highly efficient in terpene detection, since the lowest EC50 values were obtained for such compounds. Many of these terpenes have been proposed to be defensive chemicals of plants. […] DMNT is also one of the oviposition deterring compounds found in larval frass of some Lepidoptera species such as S. littoralis ([Anderson et al. 1993]).
HarmOR67, sequence (A0A7T3KAH1 entry or part of it): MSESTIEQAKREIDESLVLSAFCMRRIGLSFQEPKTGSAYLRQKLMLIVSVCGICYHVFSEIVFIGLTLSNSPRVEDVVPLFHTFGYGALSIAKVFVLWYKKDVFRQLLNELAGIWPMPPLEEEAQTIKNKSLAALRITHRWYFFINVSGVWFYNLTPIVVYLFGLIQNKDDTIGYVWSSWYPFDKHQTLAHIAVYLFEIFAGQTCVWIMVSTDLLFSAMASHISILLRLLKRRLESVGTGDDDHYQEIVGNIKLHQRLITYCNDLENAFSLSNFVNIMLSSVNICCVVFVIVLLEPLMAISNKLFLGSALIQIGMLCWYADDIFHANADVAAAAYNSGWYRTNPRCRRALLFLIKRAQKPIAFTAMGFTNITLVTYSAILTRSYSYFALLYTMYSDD
(§2) Functional characterization of individual ORs was performed by heterologous expression in Xenopus oocytes combined with a two-electrode voltage-clamp system ([Wang et al. 2010]). Briefly, the full-length gene of each OR and Orco were subcloned into the eukaryotic expression vector pT7TS. cRNAs were generated from linearized expression vectors using the mMESSAGE mMACHINE T7 kit (Ambion, Austin, TX). Then, the cRNA mixture of ORx and Orco (27.6 ng each) was injected (Nanoliter 2010, WPI Inc., Sarasota, FL) into oocytes (stage V–VII). The respective Orcos of different species were used for functional studies of OR42 orthologs except for the four butterfly species (V. tameamea, P. xuthus, D. plexippus, and P. rapae), in which we used the Orco from P. xuthus. After incubation in nutrient solution at 18 °C for 3–5 days, the response profile of each oocyte to multiple plant odorants was recorded via a two-electrode voltage clamp (OC-725C oocyte clamp, Warner Instruments, Hamden, CT) at a holding potential of −80 mV. Data were acquired by using a Digidata 1440 A and were analyzed by pCLAMP 10.2 software (Axon Instruments Inc., Union City, CA). […]
(In two-electrode clamp one electrode senses voltage and the other passes current.)

For assay [2], the target named is HarmOR31 (Helicoverpa armigera, UniProt A0A7T3N2E9). Description: Xenopus oocyte two-electrode voltage clamp, HarmOR31 + Orco. Conditions: HarmOR31; dose response in oocytes; unit M; read-out: EC50. An excerpt:
In order to expand our analysis on the response properties of HarmORs, we conducted dose–response analyses for the 28 functional HarmORs. […] Many of these terpenes have been proposed to be defensive chemicals of plants.
Briefly, the full-length gene of each OR and Orco were subcloned into the eukaryotic expression vector pT7TS. cRNAs were generated from linearized expression vectors using the mMESSAGE mMACHINE T7 kit (Ambion, Austin, TX). […] The respective Orcos of different species were used for functional studies of OR42 orthologs except for the four butterfly species (V. tameamea, P. xuthus, D. plexippus, and P. rapae), in which we used the Orco from P. xuthus.
(§3) Stock solutions of each odorant were prepared at 1 M using DMSO as a solvent, and each odorant was diluted in 1× Ringer’s solution to the indicated concentrations for electrophysiological recording. For functional screening of each HarmOR, a panel of 67 odorants belonging to three types of chemical classes: terpenes, aromatics, and aliphatics (short-chain fatty acid) were used (supplementary table S1, Supplementary Material online). For functional studies of OR42 orthologs from different species, six odorants including PAA, benzaldehyde, (E)-2-hexen-1-al, cinnamaldehyde, 2-phenylethanol, and heptanal were used.

Assay [3] concerns the target T1, HarmOR19 (Helicoverpa armigera, UniProt A0A7T3N0J7).
T1 sequence (A0A7T3N0J7 1-402): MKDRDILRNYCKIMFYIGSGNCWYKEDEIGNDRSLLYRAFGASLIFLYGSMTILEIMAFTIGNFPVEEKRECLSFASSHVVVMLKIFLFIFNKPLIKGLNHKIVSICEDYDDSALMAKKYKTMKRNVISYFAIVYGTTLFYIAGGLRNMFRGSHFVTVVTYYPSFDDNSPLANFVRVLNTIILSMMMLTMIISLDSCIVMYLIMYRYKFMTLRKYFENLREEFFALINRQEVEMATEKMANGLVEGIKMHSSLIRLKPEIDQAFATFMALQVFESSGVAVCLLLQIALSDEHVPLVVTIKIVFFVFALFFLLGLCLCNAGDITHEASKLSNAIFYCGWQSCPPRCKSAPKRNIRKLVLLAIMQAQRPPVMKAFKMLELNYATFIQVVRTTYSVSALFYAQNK
The assay is described as follows: Xenopus oocyte two-electrode voltage clamp, HarmOR19 + Orco. Conditions: dose response in oocytes, unit M. As for the experimental part:
as §1, §2

In assay [4] the target is HarmOR59 (Helicoverpa armigera, UniProt A0A7T3KAU6). The assay is described as follows: Xenopus oocyte two-electrode voltage clamp, HarmOR59 + Orco. The procedure: as §1
HarmOR59, sequence (A0A7T3KAU6 entry or part of it): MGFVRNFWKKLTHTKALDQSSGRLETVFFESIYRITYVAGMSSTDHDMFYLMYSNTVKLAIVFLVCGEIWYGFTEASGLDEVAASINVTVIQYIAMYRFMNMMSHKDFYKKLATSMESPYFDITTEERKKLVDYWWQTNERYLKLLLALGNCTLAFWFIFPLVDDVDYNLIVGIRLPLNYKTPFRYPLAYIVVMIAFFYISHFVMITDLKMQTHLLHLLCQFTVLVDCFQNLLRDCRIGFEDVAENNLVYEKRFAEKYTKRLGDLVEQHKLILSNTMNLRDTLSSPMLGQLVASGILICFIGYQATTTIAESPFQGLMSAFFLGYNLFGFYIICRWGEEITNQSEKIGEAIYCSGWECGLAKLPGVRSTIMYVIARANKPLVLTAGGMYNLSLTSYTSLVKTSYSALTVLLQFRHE
(§4) Functional characterization of individual ORs was performed by heterologous expression in Xenopus oocytes combined with a two-electrode voltage-clamp system ([Wang et al. 2010]). Briefly, the full-length gene of each OR and Orco were subcloned into the eukaryotic expression vector pT7TS. cRNAs were generated from linearized expression vectors using the mMESSAGE mMACHINE T7 kit (Ambion, Austin, TX). Then, the cRNA mixture of ORx and Orco (27.6 ng each) was injected (Nanoliter 2010, WPI Inc., Sarasota, FL) into oocytes (stage V–VII). The respective Orcos of different species were used for functional studies of OR42 orthologs except for the four butterfly species (V. tameamea, P. xuthus, D. plexippus, and P. rapae), in which we used the Orco from P. xuthus. After incubation in nutrient solution at 18 °C for 3–5 days, the response profile of each oocyte to multiple plant odorants was recorded via a two-electrode voltage clamp (OC-725C oocyte clamp, Warner Instruments, Hamden, CT) at a holding potential of −80 mV. Data were acquired by using a Digidata 1440 A and were analyzed by pCLAMP 10.2 software (Axon Instruments Inc., Union City, CA).
as §3

Assay [5] concerns the target HarmOR10 (Helicoverpa armigera, UniProt A0A0G2RLT6). The assay is described as follows: Xenopus oocyte two-electrode voltage clamp, HarmOR10 + Orco. As for the experimental part:
as §1
Functional characterization of individual ORs was performed by heterologous expression in Xenopus oocytes combined with a two-electrode voltage-clamp system ([Wang et al. 2010]). […] After incubation in nutrient solution at 18 °C for 3–5 days, the response profile of each oocyte to multiple plant odorants was recorded via a two-electrode voltage clamp (OC-725C oocyte clamp, Warner Instruments, Hamden, CT) at a holding potential of −80 mV. Data were acquired by using a Digidata 1440 A and were analyzed by pCLAMP 10.2 software (Axon Instruments Inc., Union City, CA). […]

The target of assay [6] is T2, HarmOR27 (Helicoverpa armigera, UniProt A0A7T3KAG1).
T2 sequence (A0A7T3KAG1 1-426): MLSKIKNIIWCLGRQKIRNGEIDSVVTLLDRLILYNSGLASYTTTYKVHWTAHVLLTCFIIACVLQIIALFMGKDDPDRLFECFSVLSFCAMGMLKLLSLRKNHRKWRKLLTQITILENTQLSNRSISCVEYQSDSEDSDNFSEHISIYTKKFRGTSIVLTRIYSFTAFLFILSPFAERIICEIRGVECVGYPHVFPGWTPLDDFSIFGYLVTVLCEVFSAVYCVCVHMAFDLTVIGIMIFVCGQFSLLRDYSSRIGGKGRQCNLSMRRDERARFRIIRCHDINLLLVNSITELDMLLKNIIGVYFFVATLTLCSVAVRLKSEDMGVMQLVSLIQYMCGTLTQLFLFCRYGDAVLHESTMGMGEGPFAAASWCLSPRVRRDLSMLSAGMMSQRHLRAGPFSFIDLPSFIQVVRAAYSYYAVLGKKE
The assay is described as follows: Xenopus oocyte two-electrode voltage clamp, HarmOR27 + Orco. As for the experimental part:
as §1, §4, §3

HarmOR10, sequence (A0A0G2RLT6 1-390): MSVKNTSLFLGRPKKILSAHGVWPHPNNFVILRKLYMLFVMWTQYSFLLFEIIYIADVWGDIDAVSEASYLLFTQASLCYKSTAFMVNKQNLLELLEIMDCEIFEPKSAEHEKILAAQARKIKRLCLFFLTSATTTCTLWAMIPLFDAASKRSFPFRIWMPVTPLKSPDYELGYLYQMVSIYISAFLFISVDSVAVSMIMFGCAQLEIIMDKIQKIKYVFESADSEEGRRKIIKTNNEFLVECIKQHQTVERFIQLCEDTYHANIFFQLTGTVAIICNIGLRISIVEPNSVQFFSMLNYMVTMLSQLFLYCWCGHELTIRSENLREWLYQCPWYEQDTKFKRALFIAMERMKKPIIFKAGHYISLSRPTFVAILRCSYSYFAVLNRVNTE
HarmOR31, sequence (A0A7T3N2E9 entry or part of it): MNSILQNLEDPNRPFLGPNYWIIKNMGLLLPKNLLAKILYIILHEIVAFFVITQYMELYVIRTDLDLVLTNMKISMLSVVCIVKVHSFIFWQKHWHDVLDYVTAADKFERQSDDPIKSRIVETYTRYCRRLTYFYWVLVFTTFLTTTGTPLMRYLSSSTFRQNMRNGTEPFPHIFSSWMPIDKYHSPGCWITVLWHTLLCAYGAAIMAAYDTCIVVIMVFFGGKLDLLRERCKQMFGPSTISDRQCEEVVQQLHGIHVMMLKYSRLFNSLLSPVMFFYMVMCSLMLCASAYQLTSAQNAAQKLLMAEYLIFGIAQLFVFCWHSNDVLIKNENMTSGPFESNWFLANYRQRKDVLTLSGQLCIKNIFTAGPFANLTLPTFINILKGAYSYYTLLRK

For the molecule `CCCCCCCO` [1-Heptanol], the EC50 – broadly, the concentration at which the effect is half-maximal – in assay [1] was determined as 218 µM.
Regarding `CCCCCCCCO` [1-Octanol], the EC50 in assay [2] was 96.1 µM; in assay [1], 33.1 µM.
In the case of `CCc1ccc(C(C)=O)cc1` [4'-Ethylacetophenone], the EC50 in assay [3] is 16.7 µM.
`O=Cc1ccccc1` [Benzaldehyde]: the EC50 in assay [4] came out at 12 µM; in assay [5] it was 124 µM. In assay [5] (67 odorants at 10^−4 M), the “ligand tuning of HarmOR10” value is on record as “specific ligand”.
For the molecule `CCCCOC(=O)c1ccccc1O` [Butyl salicylate], the “response of HarmOR27” value is listed as “maximal response” in assay [6] (odorant 10^−4 M) and “failed to evoke any current” in assay [6] (odorant 10^−5 M). For the same molecule, the EC50 in assay [3] amounted to 402 µM.
